The results in this text go back to US20230146593A1, “METHOD FOR TREATMENT AND PROPHYLAXIS OF CRS IN PATIENTS COMPRISING A COMBINATION OF BISPECIFIC ANTIBODIES BINDING TO CDS X CANCER CELL AND TNF ALPHA OR IL-6 INHIBITOR” (AMGEN INC., priority 2020, published 2023).

The test system of data set [1] is Adult patients with R/R AML (CRS). Conditions: human, in vivo.
Data set [2] relates to VCAM-1 on endothelial cells (HUVEC). Put plainly: Blinatumumab VCAM assay: VCAM-1 on CD31+ HUVEC in co-culture with T cells and NALM-6 cells (flow cytometry). Format: cell-based, human. The settings on record: co-culture of HUVEC, isolated T cells and NALM-6 target cells. The procedure:
FIG. 7. VCAM-1 Expression on HUVEC in AMG 103 Co-culture Assays: VCAM-1 expression by flow cytometry. […] expression levels are expressed as Median Fluorescence Intensity (MFI). VCAM-1 expressing HUVEC are expressed as percentage of CD31+ HUVEC. Error bars indicate the standard error of the mean of duplicate measurements. Two PBMC donors were used in this experiment.
The effect of blinatumumab (AMG 103) on T cell activation and the induction of VCAM-1 on endothelial cells was analyzed in co-cultures of HUVEC, isolated T cells and CD19-expressing NALM-6 target cells. VCAM-1 expression on CD31+ HUVEC was analyzed by flow cytometry.

For data set [3], the system named is TNF. Put plainly: TNF levels in patients after blinatumomab in cycle 1. Format: in vivo, human.

Regarding `C[C@@H]1C[C@H]2[C@@H]3CCC4=CC(=O)C=C[C@]4(C)[C@@]3(F)[C@@H](O)C[C@]2(C)[C@@]1(O)C(=O)CO` [dexamethasone], in data set [1], the “CRS events per patient” value turned out to be 2.3 per patient and the “average duration of CRS events” value is “(b) average duration: 58 hrs”.

With blinatumomab, the “VCAM-1 expression on CD31+ HUVEC” value in data set [2] was “up-regulated”. The “time to maximum TNF levels” value in data set [3] was at most 2 h.
